Holding throughout (assay type): cell-based, C57BL/6N mice
The subject of assay [1] is plasmacytoid dendritic cells (pDC). The assay can be described thus: Cytokine production by plasmacytoid dendritic cells (spleen or bone marrow) after TLR7/TLR9 ligand stimulation, ELISA of culture supernatant. Particulars: for IFN-α production accompanying stimulation of pDCs / IL-12 production accompanying stimulation of pDCs: stimulation with TLR7 ligand poly(U) or TLR9 ligand CpG DNA (D19 and 1668), sugar 0.2 w/v % in glucose-free medium. The procedure:
CD317-positive cells were prepared by magnetic bead sorting (MACS) from spleen cells obtained from C57BL/6N mice (Clea Japan, Inc.), as plasmacytoid dendritic cells (pDC) (FIG. 1(A)). CD11c-positive cells in the CD317-negative cell fraction were then prepared using magnetic beads, as conventional dendritic cells (CDC) (FIG. 1(A)). CD317-positive cells were also prepared using magnetic beads from bone marrow cells obtained from C57BL/6N mice (Clea Japan, Inc.), as bone marrow pDCs (FIG. 1(B)).
The obtained pDCs and cDCs were inoculated into a 96-well plate using glucose-free PRMI1640 medium with addition of 10 v/v % FCS, 100 μM 2-mercaptoethanol, 50 μg/ml streptomycin and 50 units/ml penicillin G, after which a rare sugar (D-allose, D-allulose or L-allulose) or D-glucose or D-fructose, was added to a final concentration of 0.2 w/v %.
The pDCs were stimulated with non-stimulating medium and TLR7 ligand (polyuridylic acid at a final concentration of 2.5 μg/ml (Poly(U) (Sigma) mixed with Lipofectamine 2000 (Thermo Fisher Scientific)), 100 nM R848 (InvivoGen), or TLR9 ligand (synthetic DNA (3 μM of D19: 5′-GGtgcatcgatgcagGGGGg-3′ and 0.03 μM of 1668: 5′-[…]-3′ (where uppercase indicates phosphorothioate DNA and lowercase indicates phosphodiester DNA))), and the IFN-α in the culture supernatant after 20 to 24 hours was measured using ELISA by InvivoGen while the IL-12p40 was measured using ELISA by Biolegend.
On the technique in general: In an ELISA, binding on a coated surface is turned into a signal by an enzyme label.

In assay [2] the test system is intraperitoneal macrophages. Briefly: TNF-α and nitric oxide production by intraperitoneal macrophages after LPS/IFN-γ stimulation. Particulars: 100 ng/ml LPS and 5 ng/ml IFN-γ; sugar in the medium; supernatant after 20 to 24 hours; data not shown. The procedure: The obtained pDCs and cDCs were inoculated into a 96-well plate using glucose-free PRMI1640 medium with addition of 10 v/v % FCS, 100 μM 2-mercaptoethanol, 50 μg/ml streptomycin and 50 units/ml penicillin G, after which a rare sugar (D-allose, D-allulose or L-allulose) or D-glucose or D-fructose, was added to a final concentration of 0.2 w/v %. After administering 2 ml of 4 w/v % Brewer thioglycollate medium (Sigma) intraperitoneally to C57BL/6N mice, the intraperitoneal macrophages on the 3rd day were collected and used. After inoculation into the same medium as the DCs, stimulation was with 100 ng/ml of Lipopolysaccharide E. coli O111:B4 (Sigma) and 5 ng/ml of IFN-γ (Biolegend), the TNF-α in the culture supernatant after 20 to 24 hours was measured using ELISA by Biolegend and the nitric oxide was measured using a NO2/NO3 Assay Kit-C II (Colorimetric) (Griess Reagent Kit) (Dojindo Laboratories).

In assay [3] the test system is conventional dendritic cells (cDC). Briefly: Cytokine production by spleen-derived conventional dendritic cells after stimulation, ELISA of culture supernatant. As for the experimental part: CD317-positive cells were prepared by magnetic bead sorting (MACS) from spleen cells obtained from C57BL/6N mice (Clea Japan, Inc.), as plasmacytoid dendritic cells (pDC) (FIG. 1(A)). CD11c-positive cells in the CD317-negative cell fraction were then prepared using magnetic beads, as conventional dendritic cells (CDC) (FIG. 1(A)). CD317-positive cells were also prepared using magnetic beads from bone marrow cells obtained from C57BL/6N mice (Clea Japan, Inc.), as bone marrow pDCs (FIG. 1(B)). The obtained pDCs and cDCs were inoculated into a 96-well plate using glucose-free PRMI1640 medium with addition of 10 v/v % FCS, 100 μM 2-mercaptoethanol, 50 μg/ml streptomycin and 50 units/ml penicillin G, after which a rare sugar (D-allose, D-allulose or L-allulose) or D-glucose or D-fructose, was added to a final concentration of 0.2 w/v %. The cDCs were stimulated with non-stimulating medium, 100 nM of R848 and 1 μM of 1668, and the IL-12p40 in the culture supernatant after 20 to 24 hours was measured using ELISA by Biolegend.

[4] abbreviates: supernatant after 20 to 24 hours.
Where [5] appears, read: supernatant after 20 to 24 hours, IL-12p40 ELISA.

For `O=C[C@H](O)[C@H](O)[C@H](O)[C@H](O)CO` [D-allose], the “IFN-α production by pDCs after low molecular weight TLR7 ligand stimulation” value in assay [1] (low molecular weight TLR7 ligands including R848 (100 nM), sugar 0.2 w/v %, supernatant after 20 to 24 hours) is given as “not reduced”. The “IL-12 production by pDCs after low molecular weight TLR7 ligand stimulation” value in assay [1] (low molecular weight TLR7 ligands including R848 (100 nM), sugar 0.2 w/v %, supernatant after 20 to 24 hours, IL-12p40 ELISA) is on record as “not reduced”. The “IFN-α production accompanying stimulation of pDCs” value in assay [1] (setting [4]) is given as “notably attenuated”. Further, the “IL-12 production accompanying stimulation of pDCs” value in assay [1] (setting [5]) is recorded as “notably attenuated”. The “pDC cytokine production after activation in medium containing D-allose” value in assay [1] (summary statement) is recorded as “lowered”. Further, in assay [2], the “TNF-α production by macrophages upon lipopolysaccharide (LPS) stimulation” value (“TNF-α production” below) is given as “not attenuated” and the “nitric oxide production by macrophages upon lipopolysaccharide (LPS) stimulation” value (“nitric oxide production” below) is “not attenuated”. In addition, the “IL-12 production by cDCs after CpG DNA (1668) stimulation” value in assay [3] (1 μM 1668, sugar 0.2 w/v %, supernatant after 20 to 24 hours, IL-12p40 ELISA) is recorded as “not lowered”. Further, the “cDC cytokine production after activation in medium containing D-allose” value in assay [3] (summary statement) is on record as “not lowered”.

Regarding `O=C(CO)[C@H](O)[C@H](O)[C@H](O)CO` [D-allulose], in assay [1] (setting [4]), the “IFN-α production accompanying stimulation of pDCs” value is reported as “not observed”. Further, the “IL-12 production accompanying stimulation of pDCs” value in assay [1] (setting [5]) is “not observed”. In assay [2], the “TNF-α production” value was “not attenuated” and the “nitric oxide production” value was “not attenuated”.

For the molecule `O=C(CO)[C@@H](O)[C@@H](O)[C@@H](O)CO` [L-allulose], the “IFN-α production accompanying stimulation of pDCs” value in assay [1] (setting [4]) is reported as “not observed”. Besides, the “IL-12 production accompanying stimulation of pDCs” value in assay [1] (setting [5]) is listed as “not observed”. Besides, in assay [2], the “TNF-α production” value is “not attenuated” and the “nitric oxide production” value is recorded as “not attenuated”.

As to `O=C(CO)[C@@H](O)[C@H](O)[C@H](O)CO` [D-fructose], the “IFN-α production accompanying stimulation of pDCs” value in assay [1] (setting [4]) is “not observed”. Moreover, the “IL-12 production accompanying stimulation of pDCs” value in assay [1] (setting [5]) is reported as “not observed”. In assay [2], the “TNF-α production” value is on record as “not attenuated” and the “nitric oxide production” value is on record as “not attenuated”.

Regarding `O=C[C@H](O)[C@@H](O)[C@H](O)[C@H](O)CO` [D-glucose], in assay [1] (setting [4]), the “IFN-α production accompanying stimulation of pDCs” value was “not observed”. Moreover, the “IL-12 production accompanying stimulation of pDCs” value in assay [1] (setting [5]) is “not observed”.

(Values after US20240180937A1, “CYTOKINE PRODUCTION SUPPRESSING COMPOSITION CONTAINING D-ALLOSE AS ACTIVE COMPONENT, AND METHOD OF TREATING OR PREVENTING DISEASE ASSOCIATED WITH CYTOKINE OVERPRODUCTION USING SAME” (NATIONAL UNIVERSITY CORPORATION KAGAWA UNIVERSITY, priority 2021, published 2024).)
